Measured values from US20050074810A1, “Method for non-invasilvely determining the relative levels of two biological substances” (priority 2001, published 2005).
Read-outs that look alike come from different tables or passages of the source.

How the values were obtained:
[1] = Procedure: Every hour, the entire content of the cathode solution was withdrawn and the chamber refilled with fresh buffer.
Three replicates were performed for each lithium concentration.

[2] = subdermal lactate 1.74 mM, ammonium 1.56 mM

Compound: [Li] [lithium]
- (10^3×) Extracted (lithium/Na^+) flux ratio ([1]; (10^3×) subdermal [lithium]/[Na^+] ratio 3.4, 60 min): 0.71 ± 0.28 ×10^3
- (10^3×) Extracted (lithium/Na^+) flux ratio ([1]; (10^3×) subdermal [lithium]/[Na^+] ratio 3.4, 120 min): 1.38 ± 0.19 ×10^3
- (10^3×) Extracted (lithium/Na^+) flux ratio ([1]; (10^3×) subdermal [lithium]/[Na^+] ratio 3.4, 180 min): 1.54 ± 0.20 ×10^3
- (10^3×) Extracted (lithium/Na^+) flux ratio ([1]; (10^3×) subdermal [lithium]/[Na^+] ratio 3.4, 240 min): 1.80 ± 0.03 ×10^3
- (10^3×) Extracted (lithium/Na^+) flux ratio ([1]; (10^3×) subdermal [lithium]/[Na^+] ratio 3.4, 300 min): 1.62 ± 0.03 ×10^3
- (10^3×) Extracted (lithium/Na^+) flux ratio ([1]; (10^3×) subdermal [lithium]/[Na^+] ratio 6.5, 60 min): 1.48 ± 0.41 ×10^3
- (10^3×) Extracted (lithium/Na^+) flux ratio ([1]; (10^3×) subdermal [lithium]/[Na^+] ratio 6.5, 120 min): 2.65 ± 0.55 ×10^3
- (10^3×) Extracted (lithium/Na^+) flux ratio ([1]; (10^3×) subdermal [lithium]/[Na^+] ratio 6.5, 180 min): 3.13 ± 0.78 ×10^3
- (10^3×) Extracted (lithium/Na^+) flux ratio ([1]; (10^3×) subdermal [lithium]/[Na^+] ratio 6.5, 240 min): 2.79 ± 0.35 ×10^3
- (10^3×) Extracted (lithium/Na^+) flux ratio ([1]; (10^3×) subdermal [lithium]/[Na^+] ratio 6.5, 300 min): 3.13 ± 0.51 ×10^3
- (10^3×) Extracted (lithium/Na^+) flux ratio ([1]; (10^3×) subdermal [lithium]/[Na^+] ratio 10.3, 60 min): 2.28 ± 0.43 ×10^3
- (10^3×) Extracted (lithium/Na^+) flux ratio ([1]; (10^3×) subdermal [lithium]/[Na^+] ratio 10.3, 120 min): 4.45 ± 0.64 ×10^3
- (10^3×) Extracted (lithium/Na^+) flux ratio ([1]; (10^3×) subdermal [lithium]/[Na^+] ratio 10.3, 180 min): 5.25 ± 0.48 ×10^3
- (10^3×) Extracted (lithium/Na^+) flux ratio ([1]; (10^3×) subdermal [lithium]/[Na^+] ratio 10.3, 240 min): 5.64 ± 0.52 ×10^3
- (10^3×) Extracted (lithium/Na^+) flux ratio ([1]; (10^3×) subdermal [lithium]/[Na^+] ratio 10.3, 300 min): 5.45 ± 0.36 ×10^3
- K′ (QLi/QNa=K′.[Li], slope of FIG. 25a) ([1]; pig, pH 7.4): 4.18×10^−3
- K (QLi/QNa=K.[Li]/[Na], slope of FIG. 25b) ([1]; short (5-hour) period of iontophoresis at 0.5 mA/cm^2): 0.56

Compound: N [Ammonium, ammonium]
- Deduced transport number (×100) ([2]; 3 h): 1.36 ± 0.09 ×100
- K for analyte/internal standard couple, internal standard Na^+ ([2]; 3 h): 1.71 ± 0.09
- Deduced transport number (×100) ([2]; 5 h): 1.44 ± 0.03 ×100
- K for analyte/internal standard couple, internal standard Na^+ ([2]; 5 h): 1.71 ± 0.01
